# Laboratory results from ChEMBL document CHEMBL3886901, “Substituted azoles, antiviral active component, pharmaceutical composition, method for preparation and use thereof” (2016).
# Assay: Immumoenzymatic Assay: Solutions of the tested compounds in DMEM medium {DMEM) 1x; Source: Cellgro; Catalogue: 10-013-CV} were prepared immediately before use. Eleven serial three fold dilutions with variation of concentrations from 20 nM to 0.2 pM were prepared. In 4 hours after seeding, serial dilutions of the compounds were added to the cells (100 ul to each well). Final concentration of tested compounds was varied from 10 nM to 0.1 pM, and DMSO4 0.5%. If it was necessary, higher concentrations of the disclosed azoles were investigated. Each dilution of the compound was tested on two identical wells. Then the cells were incubated for three days at 37° C./5% CO2 and fixed by addition of acetone/methanol (1:1) mixture in amount of 250 ul/well. In 1 min the cells were washed 3 times with PBS (Phosphate Buffered Saline) solution. Then the cells were blocked by addition of 10% fetal calf serum in PBS solution in amount of 150 ul/well for 1 h at room temperature. Then, the cells were incubated with mouse monoclonal antibodies to cor-antigen HCV, don C7-50 (Source: Affinity BioReagents; Catalogue: MA1-080) (100 ul/well, working dilution 1:500 in 10% fetal calf serum in PBS solution) for 2 h at 37° C. The cells were washed 6 times with PBS/0.05% Tween 20 solution, then, they were incubated for 1 h with goat anti-mouse immunoglobulin antibodies (conjugated with horseradish peroxidase, 100 ul/well, working dilution 1:2500 in 10% fetal calf serum in PBS solution). The cells were washed 6 times with PBS/0.05% Tween 20 solution, once with PBS solution, after that substrate (1 tablet of o-phenylenediamine (oPD)+12 ml citrate/phosphate buffer+5 ul 30% H2O2) in amount of 100 ul/well was added. The plates were kept for 30 min in the dark at room temperature. The reaction was arrested by the addition of 2N H2SO4 in amount of 100 ul/well, and optical density (wavelength 490 nm) was measured by means of multiscan plate reader Victor3 V 1420 (Perkin Elmer). IC50 values (azole concentration, lowering the level of virus RNA-replicon on 50%) for every tested azole were calculated with the help of XLfit 4 program.
# Format: cell-based
# Settings: not given
row,Structure (SMILES),IC50 [pM]
1,COC(=O)N[C@H](C(=O)N1CCC[C@H]1c1nc(C#CC#Cc2ccc(-c3c[nH]c([C@@H]4CCCN4C(=O)[C@@H](NC(=O)OC)C(C)C)n3)cc2)c[nH]1)C(C)C,4

# Same assay, conditions: 4 h
row,Structure (SMILES),IC50 [pM]
1,COC(=O)N[C@H](C(=O)N1CCC[C@@H]1c1nc(C#CC#Cc2ccc(-c3c[nH]c([C@@H]4CCCN4C(=O)[C@@H](NC(=O)OC)C(C)C)n3)cc2)c[nH]1)c1ccccc1,5.4
2,COC(=O)N[C@H](C(=O)N1CCC[C@H]1c1nc(-c2ccc(C#CC#Cc3c[nH]c([C@H]4CCCN4C(=O)[C@H](NC(=O)OC)C(C)C)n3)cc2)c[nH]1)c1ccccc1,1.8
3,COC(=O)N[C@@H](C(=O)N1CCC[C@@H]1c1ncc(C#CC#Cc2ccc3cc(-c4cnc([C@H]5CCCN5C(=O)[C@H](NC(=O)OC)C(C)C)[nH]4)ccc3c2)[nH]1)C(C)C,4.6
4,COC(=O)N[C@H](C(=O)N1CCC[C@H]1c1nc(C#CC#Cc2ccc3cc(-c4c[nH]c([C@@H]5CCCN5C(=O)[C@@H](NC(=O)OC)C(C)C)n4)ccc3c2)c[nH]1)C(C)C,3.6
5,COC(=O)N[C@@H](C(=O)N1CCC[C@H]1c1nc(-c2ccc(C#CC#Cc3c[nH]c([C@H]4CCCN4C(=O)[C@H](NC(=O)OC)C(C)C)n3)cc2)c[nH]1)c1ccccc1,8.2
